Results: patent US20260001889A1, “COMPOSITIONS USEFUL FOR MODULATING SPLICING” (Skyhawk Therapeutics, Inc., priority 2022, published 2026)

What was measured:
total ATXN3 protein = assay: ATXN3 Total Protein Assay (Mesoscale Discovery, SK-N-MC cells); format: cell-based, Human; conditions: incubation for 48 hours, MSD assay
Procedure, shortened: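 Human SK-N-MC neuroblastoma cells treated with compound at 30 μM to 0.6 nM for 48 h, then lysed with protease inhibitors. Total ATXN3 quantified by MSD sandwich immunoassay (mouse capture, rabbit detect antibodies, anti-rabbit MSD-ST secondary) against recombinant ATXN3 standards.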

ATXN3-HiBiT protein = assay: ATXN3 Total Protein Assay (Kelly-ATXN3-HiBiT luminescence); format: cell-based; conditions: Kelly-ATXN3-HiBiT cells, 48 h after addition of compound
Procedure, shortened: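 Kelly cells with homozygous C-terminal HiBiT knock-in on endogenous ATXN3, 2000 per well, dosed 24 h after seeding. HiBiT lytic luminescence read 48 h after compound; sister plate read with CellTiter-Glo for viability; fold change vs DMSO.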

[1] = test system: ATXN3 transcripts containing exon 4; assay: ATXN3 Quantitative Splicing Assay (qPCR, E4E5 primers/probe); format: cell-based; conditions: Homo sapiens, SK-N-MC cells, compounds for 24 h
Procedure, shortened: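 SK-N-MC human neuroblastoma cells treated 24 h with compound from 30 μM to 0.6 nM, 24 h after plating. Lysate cDNA was run in TaqMan qPCR, with primers/probe E4E5 detecting exon 4-containing ATXN3 transcripts and E8E9 measuring total ATXN3.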

Compound | IC50 (total ATXN3 protein) [nM] | EC50 (ATXN3-HiBiT protein) [nM] | IC50 [1] [nM]
C[C@H](N)Cc1oc2c(NCc3cccs3)cc(Cl)nc2c1Br [Compound 17, 2-[(S)-2-aminopropyl]-3-bromo-5-chloro-7-thenylamino-1-oxa-4-azaindene] | 0.01 to 100 | 0.01 to 100 | 0.01 to 100
Cc1cnc(-c2c(C[C@H](C)N)oc3c(NCc4cccs4)cc(Cl)nc23)o1 [Compound 322, 2-[(S)-2-aminopropyl]-5-chloro-3-(5-methyl-1,3-oxazol-2-yl)-7-thenylamino-1-oxa-4-azaindene] | 501 to 5000 | 501 to 5000 | 501 to 5000
Cc1c(C[C@H](C)N)oc2c(NCc3cccs3)cc(Cl)nc12 [Compound 11, 2-[(S)-2-aminopropyl]-5-chloro-3-methyl-7-thenylamino-1-oxa-4-azaindene] | 101 to 500 | 0.01 to 100 | 101 to 500
C#Cc1c(C[C@H](C)N)oc2c(NCc3ccco3)cc(Cl)nc12 [Compound 64, 2-[(S)-2-aminopropyl]-5-chloro-3-ethynyl-7-(furfurylamino)-1-oxa-4-azaindene] | 0.01 to 100 | 0.01 to 100 | 0.01 to 100
COC[C@H](N)Cc1oc2c(NCc3ccncc3)cc(Cl)nc2c1Cl [Compound 113, 2-[(R)-2-amino-3-methoxypropyl]-3,5-dichloro-7-{[(4-pyridyl)methyl]amino}-1-oxa-4-azaindene] | 101 to 500 | 101 to 500 | 101 to 500
C[C@H](F)[C@H](N)Cc1oc2c(NCc3c(F)cccc3F)cc(Cl)nc2c1Br [Compound 153, 2-[(2R,3S)-2-amino-3-fluorobutyl]-3-bromo-5-chloro-7-{[(2,6-difluorophenyl)methyl]amino}-1-oxa-4-azaindene] | 5000 to 10000 | 10000 to 40000 | 10000 to 40000

Continued, values first:

IC50 (total ATXN3 protein) [nM] | EC50 (ATXN3-HiBiT protein) [nM] | IC50 [1] [nM] | Compound
0.01 to 100 | 101 to 500 | 0.01 to 100 | C#C[C@H](N)Cc1oc2c(NCc3cccs3)cc(Cl)nc2c1Br [Compound 88, 2-[(R)-2-amino-3-butynyl]-3-bromo-5-chloro-7-thenylamino-1-oxa-4-azaindene]
101 to 500 | 101 to 500 | 101 to 500 | N[C@@H](COC1CC1)Cc1oc2c(NCc3cccs3)cc(Cl)nc2c1Br [Compound 115, 2-[(R)-2-amino-3-cyclopropoxypropyl]-3-bromo-5-chloro-7-thenylamino-1-oxa-4-azaindene]
101 to 500 | 101 to 500 | 101 to 500 | C#Cc1c(C[C@@H](N)C2CC2)oc2c(NCc3cccs3)cc(Cl)nc12 [Compound 180, 2-[(R)-2-amino-2-cyclopropylethyl]-5-chloro-3-ethynyl-7-thenylamino-1-oxa-4-azaindene]
501 to 5000 | 501 to 5000 | 501 to 5000 | C#Cc1cc(NCc2cccs2)c2oc(C[C@@H](N)C3CC3)c(C#C)c2n1 [Compound 181, 2-[(R)-2-amino-2-cyclopropylethyl]-3,5-diethynyl-7-thenylamino-1-oxa-4-azaindene]
501 to 5000 | 501 to 5000 | 501 to 5000 | C[C@@H](F)[C@H](N)Cc1oc2c(NCc3ccccc3)cc(Cl)nc2c1Br [Compound 93, 2-[(2R,3R)-2-amino-3-fluorobutyl]-7-benzylamino-3-bromo-5-chloro-1-oxa-4-azaindene]
101 to 500 | 101 to 500 | 101 to 500 | C[C@@H](O)[C@H](N)Cc1oc2c(NCc3cccs3)cc(Cl)nc2c1Br [Compound 126, (2R,3R)-3-amino-4-(3-bromo-5-chloro-7-thenylamino-1-oxa-4-aza-2-indenyl)-2-butanol]
501 to 5000 | 501 to 5000 | 501 to 5000 | C#Cc1c(C[C@@H](N)C2CC(F)(F)C2)oc2c(NCc3cccs3)cc(Cl)nc12 [Compound 139, 2-[(R)-2-amino-2-(3,3-difluorocyclobutyl)ethyl]-5-chloro-3-ethynyl-7-thenylamino-1-oxa-4-azaindene]
